Assay results as given in PMC11997890, “In Vivo and In Vitro Pharmacokinetic Studies of a Dual Topoisomerase I/II Inhibitor” (ACS Pharmacology & Translational Science, 2025).

What was measured:
[1] = In vitro biotransformation of P8-D6 with mouse tissue PNS; assay type: in vitro ADME; details: mouse liver PNS, 1 mM P8-D6, 150 min
Procedure: P8-D6 (1 mM) was incubated with postnuclear supernatant (PNS), microsomes, or S9 reaction mixture of various tissue samples (liver, kidney, lung, spleen, and colon) from different donor species (pigs, mice, rats, and humans) for 150 min (study preparation scheme supplied as Figure S5). The commercial human and rat enzymes were subjected to quality control by the supplier. Three phase I metabolites were identified. […] LC-MS and NMR spectroscopic data for the metabolites are given in Supporting Information. Based on the structural characteristics, the metabolites were named as follows: P8-DO (4), P8-D6 N-oxide (6), and P8-D6 mono (8). All metabolites were synthesized to confirm the postulated structure (chapter Synthesis of Metabolites). The extent of metabolism during in vitro incubation was highly dependent on the species (pig > mouse > rat > human) (Figure ).
For all phase I metabolism studies (except cell cultures), a 0.3 mL reaction mixture consisting of 1 mM substrate (P8-D6, P8-D6 mono, P8-D6 N-oxide), 1 mM NADPH as a cofactor, 0.67 mg/mL protein from homogenized tissue or subcellular fractions, respectively (except recombinant enzymes, where 0.5 mg/mL was used), and PBS buffer (pH 7.4) was used. All experiments were performed in biological triplicates. […]

[2] = Plasma protein binding by ultrafiltration; assay type: in vitro ADME; design: dose or concentration left out as unconfirmed; details: human, rat, human and rat plasma, 37 °C
Procedure: (§1) To examine the effect of the P8-D6 plasma protein binding on the in vivo bioavailability, human and rat plasma was spiked in vitro and incubated with P8-D6. By using ultrafiltration to separate free P8-D6 from the protein-bound fraction, a plasma protein binding of 99% (Figure A) was estimated. However, neither human α-1-microglobulin (3.06%) nor human serum albumin (0.91%) is responsible for binding. According to initial findings, γ-globulins (94.59%), human transferrin (90.43%), LDL (87.99%), human α2-HS glycoprotein (85.29%), and human fibrinogen (78.89%) lead to binding of P8-D6.
To examine the extent of plasma protein binding, 150 μL of blank samples of human plasma […] and rat plasma […], human albumin (1 mM, #A1653, Merck KGaA, Darmstadt); human α1-acid glycoprotein (1 mM; #G9885, Merck KGaA, Darmstadt); human α2-HS-glycoprotein (0.1 mM; #G0516, Merck KGaA, Darmstadt); human transferrin (0.2 mM; #T8158, Merck KGaA, Darmstadt); human fibrinogen (0.2 mM; #F3879, Merck KGaA, Darmstadt); LDL (0.2 mM; […]); and human γ-globulin (1 mM; #G4386, Merck KGaA, Darmstadt) were spiked with P8-D6 in the same final concentration as the protein and incubated in a shaking water bath at 37 °C for 120 min. Afterward, the unbound fraction of P8-D6 was separated by ultrafiltration (Vivaspin 500 10 000 MWCO filter). The sample preparation was performed according to plasma samples. […]

γ-globulins = experiment: Binding to isolated plasma protein by ultrafiltration; design: species or system human
Procedure: as §1
To examine the extent of plasma protein binding, 150 μL of blank samples of human plasma (1 mM) and rat plasma (1 mM), human albumin (1 mM, #A1653, Merck KGaA, Darmstadt); human α1-acid glycoprotein (1 mM; #G9885, Merck KGaA, Darmstadt); human α2-HS-glycoprotein (0.1 mM; #G0516, Merck KGaA, Darmstadt); human transferrin (0.2 mM; #T8158, Merck KGaA, Darmstadt); human fibrinogen (0.2 mM; #F3879, Merck KGaA, Darmstadt); LDL (0.2 mM; […]); and human γ-globulin (1 mM; #G4386, Merck KGaA, Darmstadt) were spiked with P8-D6 in the same final concentration as the protein and incubated in a shaking water bath at 37 °C for 120 min. Afterward, the unbound fraction of P8-D6 was separated by ultrafiltration (Vivaspin 500 10 000 MWCO filter). The sample preparation was performed according to plasma samples. […]

CYP2C19 = target: T1, CYP2C19 (Homo sapiens, UniProt P33261); experiment: In vitro CYP inhibition, marker substrate amitriptyline; assay type: in vitro ADME
T1 construct: host or cells: human liver microsomes (one value) / recombinant CYP enzyme (other value)
Procedure: To assess metabolizing enzyme-mediated drug interactions, P8-D6 was incubated with human liver (HLM) or recombinant CYP enzymes and the respective marker substrate according to the FDA (with the exception of using amitriptyline instead of S-mephenytoin). −
However, as some conversions were catalyzed by several enzymes, the conversion rates in HLM increased (e.g., bupropion and diclofenac).
To examine a possible in vitro CYP inhibition, the following CYP enzymes and marker substrates were investigated according to the FDA: , phenacetin (CYP1A2), bupropion (CYP2B6), amodiaquine (CYP2C8), diclofenac (CYP2C9), amitriptyline (CYP2C19), dextromethorphan (CYP2D6), testosterone (CYP3A4), and nifedipine (CYP3A4). Incubation was performed in a 0.2 mL reaction mix consisting of PBS buffer (pH 7.4), 1 mM marker substrate, 1 mM NADPH, and either 0.5 mg/mL recombinant CYP enzyme or human liver microsomes. P8-D6 was added for a final concentration of 0.5 μM, 1 μM, 5 μM, 10 μM, 25 μM, 50 μM, 100 μM, 500 μM, 1000 μM, and (in some cases) 5000 μM. Sample preparation was performed according to in vitro biotransformation.

T1 sequence (P33261 whole entry): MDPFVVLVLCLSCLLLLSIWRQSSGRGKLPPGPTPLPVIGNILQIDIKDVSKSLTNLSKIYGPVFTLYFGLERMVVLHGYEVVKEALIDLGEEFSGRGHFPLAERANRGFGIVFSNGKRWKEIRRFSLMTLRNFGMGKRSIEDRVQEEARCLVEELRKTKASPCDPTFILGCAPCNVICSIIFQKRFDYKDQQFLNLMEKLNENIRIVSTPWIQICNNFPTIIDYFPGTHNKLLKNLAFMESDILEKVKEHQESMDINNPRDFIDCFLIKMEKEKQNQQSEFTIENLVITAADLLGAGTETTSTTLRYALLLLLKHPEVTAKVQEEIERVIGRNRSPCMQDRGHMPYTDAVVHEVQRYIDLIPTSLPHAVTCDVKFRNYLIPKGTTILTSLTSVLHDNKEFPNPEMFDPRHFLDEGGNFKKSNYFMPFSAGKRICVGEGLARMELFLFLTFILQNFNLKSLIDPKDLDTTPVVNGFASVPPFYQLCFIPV

Row | SMILES | formation of metabolite from P8-D6 [1] [%] | fraction unbound at 120 min [2] | binding of P8-D6 (γ-globulins) [%] | IC50 (CYP2C19; HLM) [µM] | IC50 (CYP2C19; recombinant CYP isoenzyme) [µM]
1 | COc1cc(-c2cc3ccncc3c3nc(OCC[N+](C)(C)[O-])c4cnccc4c23)cc(OC)c1OC [P8-D6 N-oxide] | 3.08 |  |  |  | 
2 | COc1cc(-c2cc3ccncc3c3nc(OCCN(C)C)c4cnccc4c23)cc(OC)c1OC [P8-D6, 6-(N,N-dimethyl-2-aminoethoxy)-11-(3,4,5-trimethoxyphenyl)-pyrido[3,4-c][1,9]-phenanthroline] |  | 0.01 | 94.59 | 149 | 793
